Results: patent US11717502B2, “Blood flow improver” (WAKUNAGA PHARMACEUTICAL CO., LTD., priority 2017, dated 2023)

Experiments:
[1] = system: water immersion stressed rats; experiment: Actions against depressed tail subcutaneous blood flow in water immersion stressed rats, compared between S1PC and SAC (Test Example 2); type: in vivo, male Wistar rats; conditions: for Effect of improving the tail skin blood flow with respect to the control group: 6.5 mg/kg single oral administration two hours before water immersion stress, one hour after end of stress, Bonferroni correction
Procedure: Actions against Depressed Tail Subcutaneous Blood Flow in Water Immersion Stressed Rats, Compared between S1PC and SAC
(§1) Seven-week-old male Wistar rats purchased from Japan SLC, Inc. (Hamamatsu City) were grouped by twelves, and preliminarily bred for two weeks. During preliminary breeding, handling was performed on the rats, and the rats were bred in a constant environment at a temperature of 23±1° C., a humidity of 50±10%, and a light/dark cycle of 12 hours (light period: 7 to 19 o'clock), and freely fed with artificial diet (CE-2, from CLEA Japan, inc.) and sterilized tap water.
The administration was performed by forced oral administration using a disposable feeding needle, and the fluid volume to be administered was 10 mL per kilogram of body weight of rat. As a sample to be administered, approximately 15 mg each of S1PC (a cis/trans mixture) manufactured in Production Example 2 and SAC were precisely weighed, and dissolved in 15 mL of purified water. These solutions were used as a stock solution. The solutions were properly diluted to give 6.5 mg/kg (body weight of rat) of dosage and the diluted solution was orally administered to each rat a single time. […]
The rats were allowed to stand still in a room conditioned at a temperature of 20±0.5° C. for 30 minutes or longer, and attached with a probe for blood flow measurement using a binding tape at a position 5 cm away from the base of tail under isoflurane anesthesia. The blood flow was measured for 5 minutes using a laser tissue blood flowmeter (FLO-C1, from Omegawave Inc.). Average blood flow for 3 minutes during which the stable blood flow was shown was determined as the tail skin blood flow of the individuals. The blood flow before water immersion was measured, and then S1PC, SAC or purified water was orally administered to the rats. […] The tail skin blood flow after the water immersion stress was measured one hour after the end of water immersion stress.
Measured values were given […] average±standard error. […]

[2] = system: water immersion stressed rats; experiment: Action of S1PC against decrease in tail skin blood flow in water immersion stressed rats (Test Example 1); type: in vivo, male Wistar rats
Procedure: Action of S1PC Against Decrease in Tail Skin Blood Flow in Water Immersion Stressed Rate
as §1, with “Eight-week-old” for “Seven-week-old”, “nines,” for “twelves,”
The administration was performed by forced oral administration using a disposable feeding needle, and the fluid volume to be administered was 10 mL per kilogram of body weight of rat. As a sample to be administered, approximately 15 mg of S1PC (a cis/trans mixture) manufactured in Production Example 2 was precisely weighed, and dissolved in 15 mL of purified water. This solution was used as a stock solution. The solution was properly diluted to give 6.5 mg/kg (body weight of rat) of dosage and the diluted solution was orally administered to each rat a single time. To each rat of a control group, a solvent (purified water) was orally administered in the same manner as described above.
The rats were allowed to stand still in a room conditioned at a temperature of 20±0.5° C. for 30 minutes or longer, and attached with a probe for blood flow measurement using a binding tape at a position 5 cm away from the base of tail under isoflurane anesthesia. The blood flow was measured for 5 minutes using a laser tissue blood flowmeter (FLO-C1, from Omegawave Inc.). Average blood flow for 3 minutes during which the stable blood flow was shown was determined as the tail skin blood flow of the individual. The blood flow before water immersion was measured, and then S1PC or purified water was orally administered to the rats. Two hours after the administration, the rats were immersed up to the xiphoid and below in water at 15° C. for 10 minutes, using a stainless-steel restraint cage. The tail skin blood flow after the water immersion stress was measured one hour after the end of water immersion stress.
Measured values were given as average±standard error.
The t-test was used for examination.

SMILES	Effect of improving the tail skin blood flow with respect to the control group [1]	Tail skin blood flow, S1PC group compared with SAC group ([1]; 6.5 mg/kg single oral dose each, one hour after end of water immersion stress, p<0.01)	Effect of improving the tail skin blood flow with respect to the control group ([2]; 6.5 mg/kg single oral administration two hours before water immersion stress, t-test)	Degree of decrease in tail skin blood flow due to water immersion stress ([2]; 6.5 mg/kg single oral administration two hours before water immersion stress, versus control group)	Tail skin blood flow, one hour after end of water immersion stress ([2]; 6.5 mg/kg single oral dose two hours before water immersion (15° C., 10 minutes), average ± standard error) [mL/min/100 g]	Tail skin blood flow, before water immersion stress ([2]; baseline before oral administration, average ± standard error, laser tissue blood flowmeter) [mL/min/100 g]
CC=CSC[C@H](N)C(=O)O [S1PC, S-1-propenylcysteine]	showed a significant effect of improving the tail skin blood flow	significantly higher value of tail skin blood flow, as compared with the SAC group	significant effect of improving the tail skin blood flow	smaller as compared with the control group	2.21 ± 0.15	2.76 ± 0.15
C=CCSC[C@H](N)C(=O)O [SAC, S-allylcysteine, reference compound]	did not show a significant effect of improving the tail skin blood flow	–	–	–	–	–
